# Assay results as given in article PMC7972453, “The allosteric modulation of complement C5 by knob domain peptides” (eLife, 2021).
# Like-named read-outs stand apart in the source and are kept apart here. Bridges are numbered along the chain shown (N, C = ends). Where no end group is shown, it is not given here.
# How the values were obtained:
# human C5b-6 = human C5b-6 (Homo sapiens, UniProt P01031+P13671); experiment: SPR single-cycle kinetics, binding to C5b-6; set-up: Upon cleavage of C5a, the remaining domains of the α-chain undergo a substantial conformational change; purchased Complement Technologies, Tyler, TX
# human C5b-6, sequence (P01031 752-1676 limits assumed): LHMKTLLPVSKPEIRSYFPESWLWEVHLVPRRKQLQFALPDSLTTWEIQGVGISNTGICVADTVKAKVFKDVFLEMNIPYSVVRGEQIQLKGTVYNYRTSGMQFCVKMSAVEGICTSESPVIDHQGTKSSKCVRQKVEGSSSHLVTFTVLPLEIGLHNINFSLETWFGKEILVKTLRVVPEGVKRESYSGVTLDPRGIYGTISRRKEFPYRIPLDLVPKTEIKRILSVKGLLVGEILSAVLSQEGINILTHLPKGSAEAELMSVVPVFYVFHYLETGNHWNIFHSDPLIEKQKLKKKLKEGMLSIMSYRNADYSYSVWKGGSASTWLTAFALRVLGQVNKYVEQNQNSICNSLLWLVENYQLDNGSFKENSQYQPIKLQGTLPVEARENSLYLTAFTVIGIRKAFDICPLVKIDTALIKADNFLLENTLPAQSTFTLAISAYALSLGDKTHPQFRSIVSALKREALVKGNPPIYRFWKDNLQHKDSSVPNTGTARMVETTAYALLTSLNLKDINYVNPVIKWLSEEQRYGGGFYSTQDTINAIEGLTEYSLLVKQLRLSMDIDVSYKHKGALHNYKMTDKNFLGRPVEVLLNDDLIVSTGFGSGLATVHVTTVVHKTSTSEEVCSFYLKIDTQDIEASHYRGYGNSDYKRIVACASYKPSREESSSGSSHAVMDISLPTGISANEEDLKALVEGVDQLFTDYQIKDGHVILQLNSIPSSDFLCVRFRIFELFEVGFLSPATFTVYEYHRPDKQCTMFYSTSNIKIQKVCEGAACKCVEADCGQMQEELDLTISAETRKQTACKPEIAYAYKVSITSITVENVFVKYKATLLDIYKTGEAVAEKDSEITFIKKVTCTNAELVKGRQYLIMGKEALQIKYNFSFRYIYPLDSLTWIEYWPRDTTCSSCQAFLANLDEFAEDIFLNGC
# human C5b-6, sequence (P01031 19-673 limits assumed): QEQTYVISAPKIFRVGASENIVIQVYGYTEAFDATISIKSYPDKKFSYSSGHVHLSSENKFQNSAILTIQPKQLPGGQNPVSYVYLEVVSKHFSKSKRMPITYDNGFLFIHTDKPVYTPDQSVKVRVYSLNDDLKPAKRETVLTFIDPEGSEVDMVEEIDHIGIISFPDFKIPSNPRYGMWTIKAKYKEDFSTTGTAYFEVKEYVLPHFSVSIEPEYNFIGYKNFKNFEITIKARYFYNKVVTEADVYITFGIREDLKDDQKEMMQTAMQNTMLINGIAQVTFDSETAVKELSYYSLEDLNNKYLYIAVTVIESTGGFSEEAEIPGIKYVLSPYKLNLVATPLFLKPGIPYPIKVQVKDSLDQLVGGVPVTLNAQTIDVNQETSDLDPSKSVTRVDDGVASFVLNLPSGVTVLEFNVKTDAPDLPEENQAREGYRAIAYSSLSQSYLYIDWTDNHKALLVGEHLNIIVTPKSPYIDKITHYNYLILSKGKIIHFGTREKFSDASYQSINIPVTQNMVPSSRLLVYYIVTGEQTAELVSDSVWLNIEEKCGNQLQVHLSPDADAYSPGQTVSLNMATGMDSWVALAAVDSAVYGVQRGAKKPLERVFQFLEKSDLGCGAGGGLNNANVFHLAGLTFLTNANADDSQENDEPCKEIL
# human C5b-6, sequence (P13671 22-934 partner): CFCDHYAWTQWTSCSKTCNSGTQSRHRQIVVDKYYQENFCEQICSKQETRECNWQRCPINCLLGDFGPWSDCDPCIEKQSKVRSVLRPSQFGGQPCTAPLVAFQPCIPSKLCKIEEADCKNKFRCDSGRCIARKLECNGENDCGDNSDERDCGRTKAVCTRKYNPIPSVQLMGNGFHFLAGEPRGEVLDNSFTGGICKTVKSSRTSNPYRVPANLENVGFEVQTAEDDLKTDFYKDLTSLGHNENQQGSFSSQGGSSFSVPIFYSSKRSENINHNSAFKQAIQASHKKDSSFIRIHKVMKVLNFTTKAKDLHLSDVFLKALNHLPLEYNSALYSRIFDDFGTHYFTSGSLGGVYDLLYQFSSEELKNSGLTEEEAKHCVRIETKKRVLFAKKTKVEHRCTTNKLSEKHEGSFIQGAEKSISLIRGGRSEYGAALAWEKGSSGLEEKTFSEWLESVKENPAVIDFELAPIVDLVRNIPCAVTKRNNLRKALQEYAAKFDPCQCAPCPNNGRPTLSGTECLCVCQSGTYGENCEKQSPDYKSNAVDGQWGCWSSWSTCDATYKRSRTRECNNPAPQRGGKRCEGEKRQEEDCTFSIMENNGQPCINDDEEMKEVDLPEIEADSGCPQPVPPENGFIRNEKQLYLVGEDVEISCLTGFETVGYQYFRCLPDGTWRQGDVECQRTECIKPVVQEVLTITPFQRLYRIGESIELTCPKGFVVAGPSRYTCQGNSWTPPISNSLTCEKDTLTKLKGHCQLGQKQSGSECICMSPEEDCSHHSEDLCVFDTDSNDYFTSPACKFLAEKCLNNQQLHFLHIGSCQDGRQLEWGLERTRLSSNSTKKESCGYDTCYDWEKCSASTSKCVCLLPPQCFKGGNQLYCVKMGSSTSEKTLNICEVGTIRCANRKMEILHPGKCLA
# Description: On a Biacore 8K (GE Healthcare, Amersham, UK), human C5b was immobilised on a CM5 chip (GE Healthcare, Amersham, UK). Flow cells were activated using a standard immobilisation protocol: EDC/NHS was mixed at 1:1 ratio (flow rate, 10 µL/min; contact time, 30 s). C5b, at 1 µg/mL, or C5b-6 (Complement Technologies, Tyler, TX), at 2 µg/mL, in pH 4.5 sodium acetate buffer, were immobilised on flow cell two only (flow rate, 10 µL/min; contact time, 420 s). Finally, ethanolamine was applied to both flow cells (flow rate, 10 µL/min; contact time, 420 s). A final immobilisation level of 500–700 RUs was obtained for C5b and 1000–1150 RUs were obtained for C5b-6. Single-cycle kinetics were measured using a seven-point, threefold serial dilution (spanning a range of 1 µM to 1.4 nM) in HBS-EP buffer (GE Healthcare, Amersham, UK). A high flow rate of 40 µL/min was used, with a contact time of 300 s and a dissociation time of 2700 s. Binding to the reference surface was subtracted, and the data were fitted to a single-site binding model using Biacore evaluation software. All sensorgrams were inspected for evidence of mass transport limitation using the flow rate-independent component of the mass transfer constant (tc).
# Table 4.2. SPR single-cycle kinetics of knob domains binding to human C5b-6.
# C5 activation by the AP = experiment: Complement activation assays, alternative pathway (overall); type: biochemical; settings: C5a release, C5b neo-epitope formation and C9 deposition ELISAs; human serum
# Description: For functional characterisation of the peptides, we performed complement assays for CP and AP activation in human serum, assessing C5b neo-epitope formation and C5a release (schematically presented in Figure 1A, B), in combination with orthogonal ELISAs, measuring C3b and C9 deposition.
# For the C3 and C9 ELISAs, microtiter plates (MaxiSorp; Nunc) were incubated overnight at 4°C with 50 µL of a solution of in 75 mM sodium carbonate (pH 9.6) containing either 2.5 µg/mL aggregated human IgG (Sigma-Aldrich, Gillingham, UK) for CP or 20 µg/mL zymosan (Sigma-Aldrich, Gillingham, UK) for AP. As a negative control, wells were coated with 1% (w/v) bovine serum albumin (BSA)/PBS. […] Complement activation was assessed through detection of deposited complement activation factors using specific antibodies against C3b (rat anti-human C3d HM2198, Hycult, Uden, The Netherlands) and C9 (goat anti-human C9, A226, Complement Technologies Tyler, TX) at a 1:1000 dilution. Bound primary antibodies were detected with […]-conjugated goat anti-rat (ab97057, Abcam, Cambridge, UK) or rabbit anti-goat (P0449, Agilent Dako, Santa Clara, CA) secondary antibodies at a 1:1000 dilution. Bound HRP-conjugated antibodies were detected using TMB One solution (Eco-TEK – manufactured by Bio-TEK, Winooski, VT) with absorbance measured at 450 nm. […]
sequence,measurement,setting,value
"SVCPDGFDWGYGCAAGSSRFCTRHDWCCYDERADSHTYGFCTGNRVENLYFQ (disulfide 3-28, 13-21, 27-41) [K8]",koff,"human C5b-6; read-out: mean koff, Biacore 8K, HBS-EP, summary of n=4",0.000295 s⁻¹
same,kon,"human C5b-6; read-out: mean kon, Biacore 8K, HBS-EP, summary of n=4",12500 M⁻¹ s⁻¹
same,Stoichiometric ratio,human C5b-6; replicate n=1,0.3
same,koff,human C5b-6; replicate n=1,0.000282 s⁻¹
same,kon,human C5b-6; replicate n=1,10100 M⁻¹ s⁻¹
same,Stoichiometric ratio,human C5b-6; replicate n=2,0.3
same,koff,human C5b-6; replicate n=2,0.000384 s⁻¹
same,kon,human C5b-6; replicate n=2,12100 M⁻¹ s⁻¹
same,Stoichiometric ratio,human C5b-6; replicate n=3,0.5
same,koff,human C5b-6; replicate n=3,0.00024 s⁻¹
same,Stoichiometric ratio,human C5b-6; replicate n=4,0.3
same,koff,human C5b-6; replicate n=4,0.000277 s⁻¹
same,kon,human C5b-6; replicate n=4,15600 M⁻¹ s⁻¹
same,Mean stoichiometric ratio,human C5b-6; summary of n=4,0.4
same,"inhibition of C5 activation, AP assays (in words)",C5 activation by the AP,partially inhibiting both the AP and CP
